Assay results: patent US7138262B1, “High mannose proteins and methods of making high mannose proteins” (Shire Human Genetic Therapies, Inc., priority 2000, dated 2006)

Assays:
[1] = tested on: HT-1080 cells producing GA-GCB; experiment: Roller bottle production of glucocerebrosidase (GA-GCB) in cells treated with mannosidase inhibitors; assay type: cell-based, human; details: for Glucocerebrosidase Activity, Harvest 1: medium harvested about every 24 hours, specific activity 2,500 Units/mg
Method: Ten roller bottles (surface area, 1700 cm^2 each) were seeded in Growth Medium (DMEM with 10% calf serum) with HT-1080 cells producing GA-GCB. Following two weeks of growth, the medium was aspirated and 200 mL of fresh Production Medium (DMEM/F12, 0% calf serum) was added to three sets of roller bottles. Two sets of 4 roller bottles were treated with 1 μg/mL of either kifunensine or swainsonine. The third group of two roller bottles received no drug treatment. After approximately 24 hours, the medium from each roller bottle was harvested, pooled and a sample taken for GA-GCB enzymatic activity analysis. This procedure was repeated for seven days. […] Absolute levels of the enzyme, however, varied according to drug treatment group with the following average GA-GCB production levels observed across the seven harvests: 38.3±3.5 mg/L (control, no drug treatment), 24.5±4.0 mg/L (swainsonine, 1 μg/mL), and 21.3±2,8 mg/L (kifunensine, 1 μg/mL).

[2] = tested on: mouse J774E cells; experiment: Internalization (uptake) of glucocerebrosidase into J774E macrophage cells, with or without mannan; assay type: cell-based; details: producing cells treated with 1 μg/mL of drug
Method: GA-GCB produced in HT-1080 cells was used in an in vitro assay to determine uptake efficiency in a mouse macrophage cell line. The specific objective of the experiment was to determine the absolute and mannose receptor-specific uptake of GA-GCB in mouse J774E cells. One day prior to assay, J774E cells were plated at 50,000 cells/cm^2 in 12 well plates in Growth Medium. For the assay, 0.5 mL of Production Medium (DMEM/F12), 0% calf serum) containing 50 nM vitamin D3 (1,2-5, Dihydroxy vitamin D3) was added to the cells. Unpurified GA-GCB (from harvest 4, Table 1) was added to the test wells at a final concentration of 10 μg/mL in the presence or absence of 2 μg/mL mannan (a competitor for the mannose receptor). Three different forms of GA-GCB were used: GA-GCB from cells treated with kifunensine (1 μg/mL), GA-GCB from cells treated with swainsonine (1 μg/mL), and GA-GCB (1 μg/mL) from untreated cells. Control wells received no GA-GCB. The wells were incubated for 4 hours at 37° C., then washed extensively in buffered saline, scraped into GA-GCB enzyme reaction buffer, passed through 2 freeze/thaw cycles, and clarified by centrifugation. The supernantant was then quantitatively tested for enzyme activity and total protein. Internalization of GA-GCB into mouse J744E cells is shown in Table 2 and is reported as Units/mg of cell lysate. […]

[3] = tested on: HT-1080 cells producing GA-GCB; experiment: Isoelectric focusing (IEF) analysis of GA-GCB glycoforms from cells treated with kifunensine or swainsonine; assay type: cell-based, human; details: for apparent isoelectric point (pI) of GA-GCB: 0.1 to 2 μg/mL drug, samples from the third day
Method: HT-1080 cells producing GA-GCB were plated in duplicate 6-well plates and the Production Medium adjusted to the following concentrations of kifunensine or swainsonine: 0 (no drug), 0.1, 0.25, 0.5, 1, and 2 μg/mL. The medium was harvested and the cells refed every 24 hours for three days. The samples from the third day were subjected to isoelectric focusing (IEF) analysis. The effect of kifunensine and swainsonine on the molecular charge of GA-GCB is shown by the IEF analysis.

[4] = inhibitor 1 μg/ml, across seven harvests

SMILES | reduction of GA-GCB production relative to control ([1]; inhibitor 1 μg/mL, average of seven harvests) | Glucocerebrosidase Activity, Average ± Standard Deviation [1, 4] | Glucocerebrosidase Activity, Harvest 2 ([1]; inhibitor 1 μg/ml) | Glucocerebrosidase Activity, Harvest 3 ([1]; inhibitor 1 μg/ml) | Glucocerebrosidase Activity, Harvest 4 ([1]; inhibitor 1 μg/ml) | Glucocerebrosidase Activity, Harvest 5 ([1]; inhibitor 1 μg/ml) | Glucocerebrosidase Activity, Harvest 6 ([1]; inhibitor 1 μg/ml) | Glucocerebrosidase Activity, Harvest 7 ([1]; inhibitor 1 μg/ml) | Glucocerebrosidase Activity, Harvest 1 ([1]; inhibitor 1 μg/ml) | greater uptake of GA-GCB with kifunensine than with swainsonine [2] | apparent isoelectric point (pI) of GA-GCB [3] | shift in pI of GA-GCB, compared between the drugs ([3]; highest concentration tested (2 μg/mL)) | average GA-GCB production level across the seven harvests ([1]; inhibitor 1 μg/mL) | GA-GCB production level, average ± SD [1, 4]
O=C1N[C@@H]2[C@@H](O)[C@@H](O)[C@H](O)[C@@H](CO)N2C1=O [Kifunensine, kifunensine] | 44% | 21.3 ± 2.8 mg/L | 22.9 mg/L | 17.7 mg/L | 21.2 mg/L | 18.4 mg/L | 21.0 mg/L | 22.0 mg/L | 26.0 mg/L | approximately 2 fold | concentration dependent increase | much larger shift in pI than swainsonine |  | 
O[C@H]1[C@H]2[C@H](O)CCCN2C[C@H]1O [Swainsonine, swainsonine] |  |  | 17.4 mg/L | 28.5 mg/L | 27.0 mg/L | 22.9 mg/L | 25.0 mg/L | 22.3 mg/L | 28.6 mg/L |  | concentration dependent increase |  | 24.5 ± 4.0 mg/L | 24.5 ± 4.0 mg/L
